From patent US11179363B2, “Non-steroidal selective glucocorticoid receptor agonistic modulators (SEGRAMs) and uses thereof” (ASSOCIATION POUR LA RECHERCHE À L'IGBMC (ARI), priority 2017, dated 2021)
Each block holds one molecule with its values, some of them ahead of it.

Tests used:
[1] = Blood insulin, intraperitoneal insulin tolerance test (IPITT) and liver western blot after three-month treatment; assay type: in vivo, B6 male mice; settings: three months
Description: B6 male mice (8-week-old) were subjected daily for three months to a subcutaneous injection of either vehicle (NaCl 0.9%), Dex, CpdX, CpdX(eA), CpdX(eB), CpdX-D3, CpdX-D3(eA) or CpdX-D3(eB) (1 mg/kg body weight, diluted in vehicle). After three months, the blood was collected at 10 a.m. by retro-orbital puncture in lithium-heparin coated vials, and the plasmatic level of insulin was determined.
For the intraperitoneal insulin tolerance test (IPITT), mice were fasted for 6 hours before test. The blood glucose concentration was measured both before (To) and during a one-hour period after insulin i.p. injection (0.75 U/kg body weight).
Following this three-month treatment, liver samples were harvested and lysed in the RIPA buffer (20 mM Tris pH 8, 150 mM NaCl, 10% glycerol, 1% NP-40 and 2 mM EDTA). Antibodies from Cell Signaling were used to assess by Western-Blotting the relative level of p-IRS1 (S318), IRS-1, p-AKT (S473) and AKT.

[2] = Body weight and body composition after three-month treatment (pDEXA); assay type: in vivo, B6 male mice; settings: s.c. 1 mg/kg daily, 3 months
Description: B6 male mice (8-week-old) were daily subjected for three months to a subcutaneous injection of either vehicle (NaCl 0.9%), Dex, CpdX or CpdX-D3 (1 mg/kg body weight, diluted in vehicle. A pDEXA machine was used to determine the lean mass and fat mass. The statistical significance was calculated through Krustal-Walis test followed by a Dunn's multiple comparison test, *p<0.05; **p<0.01; ***p<0.001.

[3] = system: thymus, spleen, adrenal gland and kidney; assay: Organ weights (thymus, spleen, adrenal gland, kidney) after three-month treatment; assay type: in vivo, B6 male mice; settings: s.c. 1 mg/kg daily, three months
Description: B6 male mice (8-week-old) were daily subjected for three months to a subcutaneous injection of either vehicle (NaCl 0.9%), Dex, CpdX, CpdX(eA), CpdX(eB), CpdX-D3, CpdX-D3(eA) or CpdX-D3(eB) (1 mg/kg body weight, diluted in vehicle). Following these treatments, four organs (thymus, spleen, adrenal gland and kidney) were harvested and weighted.

[4] = system: mouse tibia cortical bone and femur trabecular bone; assay: Cortical and trabecular bone formation after three-month treatment (micro-CT, Wnt16 q-RT-PCR); assay type: in vivo, B6 male mice; settings: s.c. 1 mg/kg daily, three months
Description: B6 male mice (8-week-old) were daily subjected for three months to either a subcutaneous injection of vehicle (NaCl 0.9%), Dex, CpdX, CpdX(eA), CpdX(eB), CpdX-D3, CpdX-D3(eA) or CpdX-D3(eB) (1 mg/kg body weight, diluted in NaCl 0.9%).
From each animal included in the experiments, one femur and the ipsilateral tibia were dissected and preserved in 70% ethanol for further bone microstructure analysis by micro-CT. The FX Quantum micro-CT scanner (Perkin Elmer) was used to perform measurements at the distal femur and midshaft tibia. All scans were performed with an isotropic voxel size of 10 μm, 160 μA tube current and 90 kV tube voltage.
Morphological 3D measurements were performed using the CTAn software (Bruker). Cortical bone parameters, which were measured in the tibia midshaft, included measures of the bone volume fraction as compared to the total volume, cortical thickness, total area, bone area and marrow area. […] Trabecular bone parameters were measured in the distal metaphysis of the femurs and included bone volume fraction, trabecular thickness, trabecular number and trabecular spacing. […]
The statistical significance as compared to vehicle treatment was calculated through one-way ANOVA test followed by Dunn's multiple comparison test, *p<0.05; **p<0.01; ***p<0.001; ****p<0,0001.

[5] = system: dorsal skin of Balb/C mice; assay: Skin epidermis atrophy after 8-day topical treatment of dorsal skin; assay type: in vivo
Description: To investigate whether, similarly to Dex, a topical administration of CpdX could result in a skin atrophy, Balb/C mice were shaved on the dorsal skin. Ethanol (vehicle), Dex, CpdX or either one of its two enantiomers CpdX(eA) or CpdX(eB), as well as the deuterated form CpdX-D3 or either one of its two enantiomers CpdX-D3(eA) or CpdX-D3(eB), were topically applied onto the dorsal skin for 8 days.
Upon completion of the treatments, RNA transcripts were extracted from dorsal skin samples and the transcripts of Kindlin-1 and REDD1 genes were analyzed by q-RT-PCR. Histological and morphometric analyses of the dorsal skin were also performed.

adrenal glands = assay: Corticosterone synthesis and adrenal gland after three-month treatment; assay type: in vivo, B6 male mice; settings: three months
Description: B6 male mice (8-week-old) were daily subjected for three months to either a subcutaneous injection of vehicle (NaCl 0.9%), Dex, CpdX, CpdX(eA), CpdX(eB), CpdX-D3, CpdX-D3(eA) or CpdX-D3(eB) (1 mg/kg body weight, diluted in vehicle).
Following this long-term treatment, blood was collected at 10 a.m. and 6 p.m. by retro-orbital puncture in lithium-heparin coated vials, and the plasmatic level of corticosterone was determined. Adrenal glands were harvested and weighted. RNA transcripts were extracted and transcripts of the Cyp11a, Cyp11b1, Cyp11b2 and HSD3β genes were analyzed by q-RT-PCR. Histological analyses of the adrenal glands were also carried out.

liver = assay: Fatty liver after three-month treatment (red oil staining, q-RT-PCR, plasma cholesterol and bile acids); assay type: in vivo, B6 male mice; settings: three months
Description: B6 male mice (8-week-old) were daily subjected for three months to a subcutaneous injection of either vehicle (NaCl 0.9%), Dex, CpdX, CpdX(eA), CpdX(eB), CpdX-D3, CpdX-D3(eA) or CpdX-D3(eB) (1 mg/kg body weight, diluted in vehicle). Following this treatment, blood was collected at 10 a.m. by retro-orbital puncture in lithium-heparin coated vials. The plasmatic levels of total cholesterol and bile acids were determined.
Liver samples were harvested. […] RNA transcripts were extracted from liver samples and the transcripts of fatty acid synthase (FASN) and Stearoyl-CoA desaturase 1 (SCD1) genes were analyzed by q-RT-PCR.

[6] = Blood glucose and intraperitoneal glucose tolerance test (IPGTT) after three-month treatment; assay type: in vivo, B6 male mice; settings: three months
Description: B6 male mice (8-week-old) were daily subjected for three months to a subcutaneous injection of either vehicle (NaCl 0.9%), Dex, CpdX, CpdX(eA), CpdX(eB), CpdX-D3, CpdX-D3(eA) or CpdX-D3(eB) (1 mg/kg body weight, diluted in vehicle). Mice were over-night-fasted. Mouse blood glucose concentration was measured before (To) and during two hours (T120) after glucose i.p. injection ([…]).

GR [7] = target: T1, GR (Homo sapiens, UniProt P04150); settings: cited from earlier work
T1 sequence (P04150 1-777): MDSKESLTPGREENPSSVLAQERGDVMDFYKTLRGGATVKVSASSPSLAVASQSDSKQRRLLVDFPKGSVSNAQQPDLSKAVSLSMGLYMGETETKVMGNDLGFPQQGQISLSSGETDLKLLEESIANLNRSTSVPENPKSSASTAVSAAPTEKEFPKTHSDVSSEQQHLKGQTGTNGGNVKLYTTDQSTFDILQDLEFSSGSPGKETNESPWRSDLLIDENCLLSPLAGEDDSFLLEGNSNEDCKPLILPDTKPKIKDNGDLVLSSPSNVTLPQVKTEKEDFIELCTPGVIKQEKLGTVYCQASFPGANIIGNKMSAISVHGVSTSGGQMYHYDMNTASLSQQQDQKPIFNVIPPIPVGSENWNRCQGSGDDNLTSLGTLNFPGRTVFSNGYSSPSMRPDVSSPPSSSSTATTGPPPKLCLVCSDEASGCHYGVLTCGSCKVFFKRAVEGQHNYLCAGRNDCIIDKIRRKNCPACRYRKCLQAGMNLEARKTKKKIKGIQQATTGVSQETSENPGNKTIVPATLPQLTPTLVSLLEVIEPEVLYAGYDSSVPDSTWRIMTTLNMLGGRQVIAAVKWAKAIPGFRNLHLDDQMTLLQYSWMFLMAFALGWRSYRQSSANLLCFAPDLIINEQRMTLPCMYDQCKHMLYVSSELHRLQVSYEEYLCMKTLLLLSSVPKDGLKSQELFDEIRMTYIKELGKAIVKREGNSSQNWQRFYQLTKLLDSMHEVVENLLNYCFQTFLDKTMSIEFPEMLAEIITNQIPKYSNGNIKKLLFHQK

GR [8] = target: T2, GR (Rattus norvegicus, UniProt P06536); settings: cited from earlier work
T2 sequence (P06536 1-795): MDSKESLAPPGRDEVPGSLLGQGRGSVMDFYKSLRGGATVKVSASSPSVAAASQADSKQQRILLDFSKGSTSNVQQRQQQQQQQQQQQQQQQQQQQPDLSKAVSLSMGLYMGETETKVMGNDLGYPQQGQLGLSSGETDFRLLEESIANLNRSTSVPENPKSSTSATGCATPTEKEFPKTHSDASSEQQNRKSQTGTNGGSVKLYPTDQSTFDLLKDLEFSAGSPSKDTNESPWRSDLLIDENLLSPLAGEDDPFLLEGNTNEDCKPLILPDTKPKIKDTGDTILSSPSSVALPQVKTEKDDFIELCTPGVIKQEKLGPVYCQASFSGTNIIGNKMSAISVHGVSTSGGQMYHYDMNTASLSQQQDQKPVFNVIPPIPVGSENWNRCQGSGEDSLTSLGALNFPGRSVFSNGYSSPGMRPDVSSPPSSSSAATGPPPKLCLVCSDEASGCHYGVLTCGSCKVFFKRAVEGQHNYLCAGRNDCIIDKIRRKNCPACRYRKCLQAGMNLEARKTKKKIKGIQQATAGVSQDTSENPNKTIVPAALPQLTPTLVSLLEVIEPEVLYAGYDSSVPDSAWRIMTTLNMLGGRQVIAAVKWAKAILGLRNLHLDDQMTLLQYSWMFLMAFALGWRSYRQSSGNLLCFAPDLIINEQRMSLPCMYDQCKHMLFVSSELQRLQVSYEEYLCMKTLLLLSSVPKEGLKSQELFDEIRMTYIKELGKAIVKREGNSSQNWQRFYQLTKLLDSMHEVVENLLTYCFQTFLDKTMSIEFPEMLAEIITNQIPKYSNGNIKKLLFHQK

- decrease of the spleen weight [3]: more than 50%
- decrease of the transcription of the WNT16 gene in tibia [4]: 50%
- bone volume as compared to the total volume, tibia cortical bone ([4]; micro-CT): significantly decreased
- decrease of the epidermal thickness (morphometric analyses) ([5]; eight-day topical treatment): 65%
- skin atrophy (histological analysis) ([5]; eight-day topical treatment): severely induces a skin atrophy
- transcription of the Kindlin-1 gene (nGRE) in dorsal skin ([5]; topical 1 nmole/cm^2, 8 days): strongly decreased
- transcription of the REDD1 gene (+GRE) in dorsal skin ([5]; topical 1 nmole/cm^2, 8 days): significantly increased
- cortex layers, most notably the fasciculata zone, of the adrenal glands (histology) (adrenal glands; s.c. 1 mg/kg daily): drastically decreased
- transcripts of Cyp11a, Cyp11b1 and HSD3β genes in adrenal glands (corticosterone synthesis pathway) (adrenal glands; s.c. 1 mg/kg daily, q-RT-PCR): inhibited
- glomerulosa zone of the adrenal cortex (histology) (adrenal glands): drastically decreased
- transcript of the Cyp11b2 gene in adrenal glands (aldosterone synthesis pathway) (adrenal glands; q-RT-PCR): inhibited
- plasmatic corticosterone level at 6 p.m. (adrenal glands; vs Vehicle): much lower
- plasmatic corticosterone level at 10 a.m. (adrenal glands; vs Vehicle): much lower
- lipid deposition in the liver (5% red oil staining) (liver; s.c. 1 mg/kg daily): marked lipid deposition
- blood cholesterol and bile acids' levels (liver; 10 a.m.): clear increase
- transcripts of fatty acid synthase (FASN) and Stearoyl-CoA desaturase 1 (SCD1) in liver (liver; q-RT-PCR): increase
Structure (SMILES): C[C@@H]1C[C@H]2[C@@H]3CCC4=CC(=O)C=C[C@]4(C)[C@@]3(F)[C@@H](O)C[C@]2(C)[C@@]1(O)C(=O)CO [Dex, Dexamethasone, reference compound]
- blood insulin level (hyperinsulinemia) ([1]; s.c. 1 mg/kg daily, 10 a.m.): hyperinsulinemia
- phosphorylated insulin receptor substrate 1 (p-IRS1 S318) in liver extracts (western blot) [1]: decrease
- phosphorylation of protein kinase B (p-AKT S473) in liver extracts (western blot) [1]: decreased
- response to insulin in IPITT ([1]; insulin i.p. 0.75 U/kg): significant impaired response to insulin
- body weight, change from baseline [2]: net loss
- fat mass / fat percentage, change from baseline ([2]; pDEXA): disproportional increase
- lean mass / lean percentage, change from baseline ([2]; pDEXA): decrease
- thymus apoptosis (thymus weight) [3]: no thymus was found in sixteen out of nineteen mice
- blood glucose level after over-night fasting ([6]; s.c. 1 mg/kg daily): significantly higher
- blood glucose level during two-hour IPGTT ([6]; glucose i.p. injection): significant higher

Structure (SMILES): C[C@@H]1C[C@H]2[C@@H]3CCC4=CC(=O)C=C[C@]4(C)[C@@]3(F)[C@@H](O)C[C@]2(C)[C@H]1C(=O)CC#N [RU24858]
- dissociated profile (transrepression vs transactivation) in vitro (GR [7]): exhibit such an expected dissociated profile
- dissociation upon administration in vivo (GR [8]): failed to confirm this dissociation
